# Experiments:
# β-adrenoreceptor (β1) [1] = target: T1, β-adrenoreceptor (β1) (Rattus norvegicus, UniProt P18090); assay: β-adrenoceptor blocking action on electrically driven isolated left atrium (L-isoproterenol-induced contractility); set-up: species or system Wistar rat
# T1 construct: The right and left atria were then separated; from tissue; host or cells: isolated rat right and left atria
# Method: The inspontaneously-beating left atrial tissue was obtained from rat's isolated right atrial tissue experiments. […] The contraction rate was 1Hz and the resting tension 0.5 gm. After 60 minutes of equilibration, the following experiments were performed: • (a) Completion of cumulative concentration-response curve: similar to experimental method on isolated right atrium; • (b)Calculation of pA2 value: similar to calculation method on isolated right atrium.
# atrial β 1-receptor = target: T2, atrial β 1-receptor (Rattus norvegicus, UniProt P18090); assay: [3H]CGP-12177 receptor binding on atrial membranes; set-up: species or system Wistar rat
# T2 construct: The heart and lung of rat were removed and placed in cold Tris buffer; from tissue; host or cells: rat atrial membranes
# Method: (§1) The heart and lung of rat were removed and placed in cold Tris buffer. Then the atria and lung were separated and weighed, before placing in cold Tris buffer with volume 20X their weights. […] The centrifugal fluid was again centrifuged at 10,000 gm for 12 minutes. The second centrifugal fluid was centrifuged for the third time at 29,000 gm for 15 minutes. The pellet finally obtained was re-suspended in Tris buffer as little as possible. […] Finally, the protein concentration was diluted with Tris buffer to maintain 200∼250 µ g protein per 100 µ l.
# (§2) After reaction, 1ml of cold Tris buffer was added to terminate the binding reaction.
# A7r5 cells = assay: Fluorescence determination of intracellular calcium ion (fluo 3-AM, laser cytometer); format: cell-based; conditions: 10^-8, 10^-7, and 10^-6M for 5 minutes
# Method: The intensity of fluo 3-AM was measured by line scanning at 30second interval with an argon laser at […].
# [2] = tested on: Wistar rat's isolated; reserpine pretreated right atrium beating rate and left atrium isometric contractions; assay: Direct effect (intrinsic sympathomimetic activity) on reserpine-pretreated isolated atria
# Method: Pharmacol 311, pp. 205-218 and pp 237-248 (1980). Wistar rats of weight between 200 ∼ 300 gm were used. 18 ∼ 24 hours before the experiment, 5mg/kg of reserpine was injected via abdominal cavity to remove all endogenous catecholamines. Prior experiment, Wistar rats were sacrificed, the heart was immediately removed and placed in Kreb's solution aerated with air mixture and maintained at room temperature. The right and left atria were carefully separated.
# lung β 2-receptor = target: T3, lung β 2-receptor (Rattus norvegicus, UniProt P10608); assay: [3H]CGP-12177 receptor binding on lung membranes; set-up: species or system Wistar rat
# T3 construct: The heart and lung of rat were removed and placed in cold Tris buffer; from tissue; host or cells: rat lung membranes
# Method: as §1, §2
# [3] = tested on: Wistar rat's isolated thoracic aorta; assay: Isolated thoracic aorta contraction caused by 75mM KCl; conditions: 10^-8M; thoracic aorta contraction caused by 75mM KCl
# Method: After sacrificing Wistar rat of weight between 300 - 500 gm, the thoracic aorta was immediately removed and placed in cold Kreb's solution. The fatty connecting tissue surrounding the vessel wall was removed and the thoracic aorta was cut into rings of length 5 mm. The two ends of each ring was pieced and fixed with "Z" shaped platinum wires. […] When the results had been recorded for at least 35 minutes, the aorta was repeatedly rinsed with normal Kreb's solution. […] 30 minutes later, 75mM KCl was added again to induce vasoconstriction.
# [4] = tested on: guinea pig's isolated; reserpine pretreated tracheal; assay: Direct effect (tracheal relaxation, intrinsic sympathomimetic activity) on reserpine-pretreated isolated trachea, with and without ICI 118,551
# Method: Pharmacol 311, pp. 205-218 and pp.237-248 (1980). guinea pigs of weight between 350 ∼ 500 gm were used. 18 ∼ 24 hours before the experiment, 5mg/kg of reserpine was injected via abdominal cavity to remove all endogenous catecholamines. Prior experiment, guinea pigs were sacrificed, the tracheal was immediately removed and placed in Kreb's solution aerated with air mixture and maintained at room temperature of 22 ∼ 25°C. […] […] Then the tissue was repeatedly washed with Kreb's solution. After the tissue had been re-equilibrated for 60 minutes, ICI 118, 551 were administed. After treatment for 30 minutes, compound 1 of similar concentration was administered, and the intrinsic sympathomimetic activity of tracheal was observed.
# normotensive rats = assay: Heart rate and blood pressure in living (anaesthetized) rat, intravenous injection; format: in vivo, Wistar rats
# From the text: Male Wistar rats, weighing 200 ∼ 300g were abdominal anaesthetized with pentobarbital sodium. Tracheal was cannulated to maintain normal respiration. Polyethylene tube was inserted into the left femoral vein to facilitate drug administration. A 3-way stopcock was used, with one end connected to a syringe for drug injection, while the other end was connected to the syringe filled with physiological saline. The latter was used to prevent residual drugs in the polyethylene tube after injection, which would affect experimental accuracy.
# The right femoral artery was also inserted with polyethylene, and a 3-way stopcock was used tool, where one end was connected to heparin solution to prevent embolism. The other end was connected to a Disposable Diaphragm Dome, TA1019, and linked to a transducer. Through an amplifier, a recorder recorded the overall and average arterial pressure; heart rate to evaluate the effect of drug on blood pressure and heart rate.
# β2-adrenoceptor = target: T4, β2-adrenoceptor (Cavia porcellus, UniProt Q8K4Z4); assay: β-adrenoceptor blocking action on isolated trachea contracted with carbachol (L-isoproterenol relaxation); set-up: species or system guinea pig
# T4 construct: a portion of tracheal approximately 4 cm long was removed; from tissue; host or cells: isolated guinea pig trachea (reserpine-pretreated animals)
# Method: Guinea pigs of weight between 300 ∼500 gm were used. […] After the guinea pigs were sacrificed, a slit was made along the neck, and a portion of tracheal approximately 4 cm long was removed. […] The two ends of the tracheal were clamped with frog-heart shaped clamps, one end was fixed at the bottom of tissue bath filled with 20 ml of Kreb's solution, maintained at 37°C, while the other end was connected to a force transducer. Through a COULBOURN AT-High-Speed Videograph, long isometric contractions were recorded. […] Then the tracheal was repeatedly washed with Kreb's solution for 20 minutes and 10^-6 M of carbochol was added to cause contraction in the guinea pig's tracheal. When the contraction reached the maximum, every division of tracheal was used to complete two concentration response curve of L-isoproternol, one of them without administration of test compound and used as control; while the other curve was administered with compound 1 for 30 minutes before concentration response curve was completed. This is the test group. • (b) Calculation of pA2: similar to the calculation method for isolated right atrium experiment.
# [5] = tested on: BayK8644 pretreated thoracic aorta; assay: Isolated thoracic aorta pretreated with BayK8644, then contracted with concentrated potassium solution; set-up: species or system Wistar rat; conditions: 0.1 µ M of BayK8644 for 10 minutes; 10^-8 to 10^-5 M compound
# Method: The effect of compound 1 on the thoracic aorta contraction caused by 75mM KCl. The Wistar rat's isolated thoracic aorta was contraction induced by 75mM of concentrated Potassium solution. […] Furthermore, the contraction effects of 10^-8M of compound 1- 9 were indicated on Table 1. (b) The effect of compound 1 on BayK8644 pretreated thoracic aorta: 0.1 µ M of BayK8644 was first added into the tissue trough. 10 minutes later, 75mM of concentrated Potassium solution was added to induce thoracic aorta contraction. When vasoconstriction had reached stability, different concentrations of (10^-8, 10^-7, 10^-6, and 10^-5M) compound 1 were separately added.
# β-adrenoreceptor (β1) [6] = target: T1, β-adrenoreceptor (β1); assay: β-adrenoceptor blocking action on isolated spontaneously beating right atrium (L-isoproterenol-induced heart rate increase, Schild plot); set-up: species or system Wistar rat
# Method: The right and left atria were then separated. The spontaneously-beating right atria was clipped on both end by heart shaped clips, where one end was fixed at the bottom of 10ml of tissue bath made of physiological saline solution, and temperature maintained at 37°C. The other end of the atria was connected to a force transducer, and isometric contractions and beating rate of the right atria were recorded by COULBOURN AT-High-Speed VideoFigure. […] Cumulative administration interval was when the previous concentration reached its greatest effect, the next concentration would be immediately given.
# T1 sequence (P18090 whole entry): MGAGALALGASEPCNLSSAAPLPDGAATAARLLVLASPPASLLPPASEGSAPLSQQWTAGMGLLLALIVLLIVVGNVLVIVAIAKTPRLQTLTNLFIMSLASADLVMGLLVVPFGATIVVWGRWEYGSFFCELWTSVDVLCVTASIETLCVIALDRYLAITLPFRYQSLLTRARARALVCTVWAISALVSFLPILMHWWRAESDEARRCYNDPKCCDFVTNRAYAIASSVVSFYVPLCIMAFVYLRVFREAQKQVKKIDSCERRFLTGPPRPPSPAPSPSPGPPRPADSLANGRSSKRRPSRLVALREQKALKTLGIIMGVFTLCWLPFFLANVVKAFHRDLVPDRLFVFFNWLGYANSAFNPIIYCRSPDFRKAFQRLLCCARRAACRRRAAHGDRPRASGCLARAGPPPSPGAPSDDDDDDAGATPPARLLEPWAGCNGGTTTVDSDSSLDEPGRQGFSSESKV
# T4 sequence (Q8K4Z4 whole entry): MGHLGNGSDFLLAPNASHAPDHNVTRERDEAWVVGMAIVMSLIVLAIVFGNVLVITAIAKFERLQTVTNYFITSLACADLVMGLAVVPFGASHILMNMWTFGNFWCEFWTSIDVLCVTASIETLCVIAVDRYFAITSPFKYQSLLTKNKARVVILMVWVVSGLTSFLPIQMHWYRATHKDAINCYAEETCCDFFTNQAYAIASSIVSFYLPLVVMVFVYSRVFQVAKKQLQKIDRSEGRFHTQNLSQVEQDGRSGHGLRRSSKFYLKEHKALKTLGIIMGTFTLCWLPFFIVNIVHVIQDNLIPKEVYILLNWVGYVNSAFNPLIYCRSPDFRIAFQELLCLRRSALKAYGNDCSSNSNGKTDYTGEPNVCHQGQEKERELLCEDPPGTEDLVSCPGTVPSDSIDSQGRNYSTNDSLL
# T2 sequence (P18090 whole entry): as the sequence (P18090 whole entry) above
# T3 sequence (P10608 whole entry): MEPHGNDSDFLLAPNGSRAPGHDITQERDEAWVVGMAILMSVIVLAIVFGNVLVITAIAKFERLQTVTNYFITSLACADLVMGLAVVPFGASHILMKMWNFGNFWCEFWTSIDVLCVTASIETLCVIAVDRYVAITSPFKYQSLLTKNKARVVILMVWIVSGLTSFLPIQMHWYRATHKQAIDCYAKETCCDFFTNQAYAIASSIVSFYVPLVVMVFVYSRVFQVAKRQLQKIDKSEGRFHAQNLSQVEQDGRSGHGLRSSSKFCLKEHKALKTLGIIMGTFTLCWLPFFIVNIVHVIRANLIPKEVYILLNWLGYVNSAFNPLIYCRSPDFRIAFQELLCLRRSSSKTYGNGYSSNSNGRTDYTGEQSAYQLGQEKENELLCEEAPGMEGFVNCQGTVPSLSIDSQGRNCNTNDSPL
smiles,measurement,setting,value
COC(=O)C1=C(C)NC(C)=C(C(=O)OC)C1c1ccc(OCC(O)CNC(C)(C)C)c(OC)c1 (stereo not shown) [compound 1],blocking of heart contractility increment effect of L-isoproterenol,"β-adrenoreceptor (β1) [1]; isolated left atrium, three concentrations of compound",could competitively block the heart contractility increment effect of L-isoproterenol
same,pA2 value,"β-adrenoreceptor (β1) [1]; left atrium contractility, against L-isoproterenol",6.91±0.26
same,Ki,atrial β 1-receptor,245 nM
same,calcium ion influx effect of KCl ([Ca^2+]i),A7r5 cells; 50mM KCl,significantly blocked
same,calcium ion influx effect of BayK8644 ([Ca^2+]i),A7r5 cells; 10 µ M BayK8644,significantly blocked
same,direct effect on right atrium beating rate and left atrium isometric contractions,"[2]; cumulative administration, reserpine pretreated",could not increase the beating rate and isometric contractions
same,concentration with blocking effect on beating rate and isometric contractions,[2]; reserpine pretreated atria,≥ 10^-5 M
same,Ki,lung β 2-receptor,631 nM
same,Aorta Relaxation,[3],30± 3%
same,"tracheal relaxation effect after pretreatment with ICI 118, 551",[4],concentration-dependently shifting parallel to the right
same,tracheal relaxation effect,"[4]; cumulative administration 10^-10∼3x10^-6 M, reserpine pretreated",dose-dependant tracheal relaxation effect
same,effect on blood pressure and heart rate,normotensive rats; intravenous injection of 0.5 mg/kg,a decrease in heart rate was shown
same,effect on blood pressure and heart rate,"normotensive rats; intravenous injection, 0.1, 0.25, 0.5, 1.0, 2.0 mg/kg, normotensive rats",continuous dose-dependent blood pressure lowering effect without increasing heart rate
same,duration of blood pressure lowering effect,"normotensive rats; intravenous injection, normotensive rats",approximately 1 hour
same,Lowering of Blood Pressure,"normotensive rats; lmg/kg, via femoral vein, rats",70± 3 mm Hg
same,Reduction of Heart Rate,"normotensive rats; lmg/kg, via femoral vein, rats",30± 2 beats/min
same,pA2 value,"β2-adrenoceptor; guinea pig's isolated tracheal, against L-isoproterenol",7.09±0.54
same,blocking of tracheal relaxation effect of L-isoproterenol,β2-adrenoceptor; trachea contracted with 10^-6 M CARBACHOL,could competitively block the effect of L-isoproterenol
same,effect of BayK8644 pre-treatment on the compound's vascular effect,[5],pre-treatment with BayK8644 would affect vasoconstriction function
same,selectivity ratio of β1 type adrenoceptor (effect on right atrium relative to tracheal),β-adrenoreceptor (β1) [6]; from the average pA2 difference between right atrium and tracheal,1.32 X
same,pA2 value,"β-adrenoreceptor (β1) [6]; isolated right atrium, against L-isoproterenol",7.21±0.32
same,blocking of heart rate increment effect of L-isoproterenol,"β-adrenoreceptor (β1) [6]; isolated right atrium, three concentrations of compound",could competitively block the heart rate increment effect of L-isoproterenol
